ChEMBL document CHEMBL1153505, “Free and bound state structures of 6-O-methyl homoerythromycins and epitope mapping of their interactions with ribosomes” (Bioorg Med Chem, 2009)

Biological target: Bacterial 70S ribosome
Test: Inhibition of Escherichia coli ribosome
Type: subcellular

SMILES | IC50
CC[C@H]1OC(=O)[C@H](C)[C@@H](O)[C@H](C)[C@@H](O[C@@H]2O[C@H](C)C[C@H](N(C)C)[C@H]2O)[C@](C)(OC)C[C@@H](C)NC(=O)[C@H](C)[C@@H](O)[C@]1(C)O | > 100000 nM
CC[C@H]1OC(=O)[C@H](C)[C@@H](O[C@H]2C[C@@](C)(OC)[C@@H](O)[C@H](C)O2)[C@H](C)[C@@H](O[C@@H]2O[C@H](C)C[C@H](N(C)C)[C@H]2O)[C@](C)(OC)C[C@@H](C)C(=O)N[C@H](C)[C@@H](O)[C@]1(C)O | 1300 nM
CC[C@H]1OC(=O)[C@H](C)[C@@H](O)[C@H](C)[C@@H](O[C@@H]2O[C@H](C)C[C@H](N(C)C)[C@H]2O)[C@](C)(OC)C[C@@H](C)C(=O)N[C@H](C)[C@@H](O)[C@]1(C)O | > 100000 nM
CC[C@H]1OC(=O)[C@H](C)[C@@H](O[C@H]2C[C@@](C)(OC)[C@@H](O)[C@H](C)O2)[C@H](C)[C@@H](O[C@@H]2O[C@H](C)C[C@H](N(C)C)[C@H]2O)[C@](C)(OC)C[C@@H](C)NC(=O)[C@H](C)[C@@H](O)[C@]1(C)O | 100 nM
CC[C@H]1OC(=O)[C@H](C)[C@@H](O[C@H]2C[C@@](C)(OC)[C@@H](O)[C@H](C)O2)[C@H](C)[C@@H](O[C@@H]2O[C@H](C)C[C@H](N(C)C)[C@H]2O)[C@](C)(O)C[C@@H](C)CN(C)[C@H](C)[C@@H](O)[C@]1(C)O [AZITHROMYCIN] | 300 nM
